compound: CO[C@@H]1[C@H](N(C)C(=O)c2ccccc2)C[C@H]2O[C@]1(C)n1c3ccccc3c3c4c(c5c6ccccc6n2c5c31)C(=O)NC4 [Midostaurin] + CS(=O)(=O)N1CCN(Cc2cc3nc(-c4cccc5[nH]ncc45)nc(N4CCOCC4)c3s2)CC1 [Pictilisib] (partner 1 µM); test: relative viability (nuclei count vs DMSO), 5 days (fraction); higher = more cells survive; settings: first compound 0.03162 µM
Method in brief: (§1)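 Each reported value is a median over duplicate plates. It expresses relative viability: treated-well nuclei count divided by vehicle-well nuclei count. Lung cancer cell lines in 1536-well plates were dosed by pin tool a day after seeding, alone with one drug or with a fixed anchor-drug dose plus five library-drug doses (not always all listed) in √10 steps, and nuclei were counted after 5 days.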

Cell Line	relative viability
NCI-H460	0.296
NCI-H2347	0.493
SK-LU-1	0.676
NCI-H1395	0.588
201T	0.571
NCI-H1915	0.852
HCC-827	1
LXF-289	0.766
NCI-H23	0.402
NCI-H647	0.532
CAL-12T	0.417
NCI-H1651	0.575
EPLC-272H	0.305
NCI-H2228	0.454
NCI-H1792	0.25
NCI-H1355	0.381
NCI-H3122	0.583
NCI-H1437	0.567
NCI-H1755	0.345
NCI-H2023	0.249
HCC-15	0.705
NCI-H1793	0.097
PC-14	0.61
EKVX	0.367
LC-2-ad	0.416
NCI-H1944	0.294
NCI-H1975	0.273
RERF-LC-KJ	0.51
NCI-H358	0.222
NCI-H650	0.794

same assay, conditions: first compound 0.1 µM

Cell Line	relative viability
NCI-H460	0.346
NCI-H2347	0.648
SK-LU-1	0.56
NCI-H1395	0.588
201T	0.659
NCI-H1915	1.01
HCC-827	1.16
LXF-289	0.764
NCI-H23	0.439
NCI-H647	0.311
CAL-12T	0.334
NCI-H1651	0.529
EPLC-272H	0.295
NCI-H2228	0.452
NCI-H1792	0.257
NCI-H1355	0.401
NCI-H3122	0.64
NCI-H1437	0.567
NCI-H1755	0.407
NCI-H2023	0.208
HCC-15	0.762
NCI-H1793	0.217
PC-14	0.633
EKVX	0.473
LC-2-ad	0.497
NCI-H1944	0.372
NCI-H1975	0.263
RERF-LC-KJ	0.579
NCI-H358	0.308
NCI-H650	0.835

same assay, conditions: first compound 0.3162 µM

Cell Line	relative viability
NCI-H460	0.417
NCI-H2347	0.634
SK-LU-1	0.572
NCI-H1395	0.615
201T	0.722
NCI-H1915	0.98
HCC-827	1.25
LXF-289	0.598
NCI-H23	0.326
NCI-H647	0.294
CAL-12T	0.413
NCI-H1651	0.512
EPLC-272H	0.298
NCI-H2228	0.617
NCI-H1792	0.244
NCI-H1355	0.526
NCI-H3122	0.734
NCI-H1437	0.599
NCI-H1755	0.332
NCI-H2023	0.186
HCC-15	0.823
NCI-H1793	0.49
PC-14	0.75
EKVX	0.483
LC-2-ad	0.24
NCI-H1944	0.327
NCI-H1975	0.248
RERF-LC-KJ	0.46
NCI-H358	0.432
NCI-H650	0.628

compound: COc1cc(-c2nn([C@H]3CC[C@H](N4CCN(C(C)=O)CC4)CC3)c3ncnc(N)c23)ccc1NC(=O)c1cc2ccccc2n1C + CC(=O)Nc1cccc(-n2c(=O)n(C3CC3)c(=O)c3c(Nc4ccc(I)cc4F)n(C)c(=O)c(C)c32)c1 [Trametinib] (partner 0.02 µM); test: as above; settings: first compound 0.0128 µM
Method in brief: as §1

Cell Line	relative viability
NCI-H460	0.111
NCI-H2347	0.292
SK-LU-1	0.455
NCI-H1395	1.02
201T	0.743
NCI-H1915	0.333
HCC-827	0.574
LXF-289	0.78
NCI-H23	0.405
NCI-H647	0.543
CAL-12T	0.331
NCI-H1651	0.843
EPLC-272H	0.331
NCI-H2228	0.448
NCI-H1792	0.433
NCI-H1355	0.416
NCI-H3122	0.209
NCI-H1437	0.527
NCI-H1755	0.907
NCI-H2023	0.402
HCC-15	0.421
NCI-H1793	0.446
PC-14	0.819
EKVX	0.406
LC-2-ad	0.956
NCI-H1944	0.455
NCI-H1975	0.328
RERF-LC-KJ	0.844
NCI-H358	0.153
NCI-H650	0.993

same assay, conditions: first compound 0.04048 µM

Cell Line	relative viability
NCI-H460	0.0655
NCI-H2347	0.236
SK-LU-1	0.316
NCI-H1395	0.945
201T	0.727
NCI-H1915	0.141
HCC-827	0.341
LXF-289	0.468
NCI-H23	0.25
NCI-H647	0.265
CAL-12T	0.289
NCI-H1651	0.832
EPLC-272H	0.205
NCI-H2228	0.146
NCI-H1792	0.132
NCI-H1355	0.313
NCI-H1437	0.609
NCI-H1755	0.651
NCI-H2023	0.445
HCC-15	0.269
NCI-H1793	0.24
PC-14	0.721
EKVX	0.236
LC-2-ad	0.536
NCI-H1944	0.274
NCI-H1975	0.293
RERF-LC-KJ	0.818
NCI-H358	0.125
NCI-H650	0.501

Source: the supplement of paper PMC10307832
